In patent US20230278997A1, “BICYCLO[1.1.1]PENTANE COMPOUNDS FOR THE TREATMENT AND PROPHYLAXIS OF HEPATITIS B VIRUS INFECTION” (Hoffmann-La Roche Inc., priority 2020, published 2023):

Assay: Human microsome stability assay
Assay type: in vitro ADME
Conditions: 1 μM compound, 0.5 mg/mL microsomal protein, 37° C.; detection limit 6.15 mL/min/kg
Experimental: Human Microsome Stability Assay The human microsomal stability assay is used for early assessment of metabolic stability of a test compound in human liver microsomes. Human liver microsomes (Cat. […] The reactions were initiated by adding NADPH regenerating system. […] Following precipitation and centrifugation, the amount of compound remaining in the samples were determined by LC-MS/MS. Controls of no NADPH regenerating system at zero and 30 minutes were also prepared and analyzed.

Clearance of human microsome	SMILES
≤6.15 mL/min/kg	CS(=O)(=O)C1(c2ccc(C(=O)NC34CC(c5nc(-c6ccc(Cl)nc6)cs5)(C3)C4)o2)CC1 [Example 9, N-[3-[4-(6-chloro-3-pyridyl)thiazol-2-yl]-1-bicyclo[1.1.1]pentanyl]-5-(1-methylsulfonylcyclopropyl)furan-2-carboxamide]
≤6.15 mL/min/kg	CS(=O)(=O)C1(c2ccc(C(=O)NC34CC(c5nsc(-c6ccccc6)n5)(C3)C4)o2)CC1 [Example 25, 5-(1-methylsulfonylcyclopropyl)-N-[3-(5-phenyl-1,2,4-thiadiazol-3-yl)-1-bicyclo[1.1.1]pentanyl]furan-2-carboxamide]
≤6.15 mL/min/kg	CS(=O)(=O)C1(c2ccc(C(=O)NC34CC(c5nnc(-c6ccc(Cl)cc6)o5)(C3)C4)o2)CC1 [Example 28, N-[3-[5-(4-chlorophenyl)-1,3,4-oxadiazol-2-yl]-1-bicyclo[1.1.1]pentanyl]-5-(1-methylsulfonylcyclopropyl)furan-2-carboxamide]
≤6.15 mL/min/kg	CS(=O)(=O)C1(c2ccc(C(=O)NC34CC(c5cn(-c6ccc(Cl)cc6)nn5)(C3)C4)o2)CC1 [Example 29, N-[3-[1-(4-chlorophenyl)triazol-4-yl]-1-bicyclo[1.1.1]pentanyl]-5-(1-methylsulfonylcyclopropyl)furan-2-carboxamide]

Second part, the compound before the results:

SMILES	Clearance of human microsome
CS(=O)(=O)Cc1ncc(C(=O)NC23CC(c4nc(-c5ccc(Cl)cc5)cs4)(C2)C3)o1 [Example 5, N-[3-[4-(4-chlorophenyl)thiazol-2-yl]-1-bicyclo[1.1.1]pentanyl]-2-(methylsulfonylmethyl)oxazole-5-carboxamide]	≤6.15 mL/min/kg
CS(=O)(=O)C1(c2ccc(C(=O)NC34CC(c5nc(C6CC6)cs5)(C3)C4)o2)CC1 [Example 14, N-[3-(4-cyclopropylthiazol-2-yl)-1-bicyclo[1.1.1]pentanyl]-5-(1-methylsulfonylcyclopropyl)furan-2-carboxamide]	≤6.15 mL/min/kg
CS(=O)(=O)C1(c2ccc(C(=O)NC34CC(c5nc(C(F)(F)F)cs5)(C3)C4)o2)CC1 [Example 16, 5-(1-methylsulfonylcyclopropyl)-N-[3-[4-(trifluoromethyl)thiazol-2-yl]-1-bicyclo[1.1.1]pentanyl]furan-2-carboxamide]	≤6.15 mL/min/kg
CS(=O)(=O)C1(c2ccc(C(=O)NC34CC(c5nc(-c6ccccc6)ns5)(C3)C4)o2)CC1 [Example 17, 5-(1-methylsulfonylcyclopropyl)-N-[3-(3-phenyl-1,2,4-thiadiazol-5-yl)-1-bicyclo[1.1.1]pentanyl]furan-2-carboxamide]	≤6.15 mL/min/kg
CS(=O)(=O)C1(c2nnc(C(=O)NC34CC(c5ncc(-c6ccc(Cl)cc6)s5)(C3)C4)o2)CC1 [Example 20, N-[3-[5-(4-chlorophenyl)thiazol-2-yl]-1-bicyclo[1.1.1]pentanyl]-5-(1-methylsulfonylcyclopropyl)-1,3,4-oxadiazole-2-carboxamide]	≤6.15 mL/min/kg
CS(=O)(=O)C1(c2ccc(C(=O)NC34CC(c5ncc(-c6ccccc6)s5)(C3)C4)o2)CC1 [Example 22, 5-(1-methylsulfonylcyclopropyl)-N-[3-(5-phenylthiazol-2-yl)-1-bicyclo[1.1.1]pentanyl]furan-2-carboxamide]	≤6.15 mL/min/kg
CS(=O)(=O)C1(c2ccc(C(=O)NC34CC(c5ncc(C6CC6)s5)(C3)C4)o2)CC1 [Example 23, N-[3-(5-cyclopropylthiazol-2-yl)-1-bicyclo[1.1.1]pentanyl]-5-(1-methylsulfonylcyclopropyl)furan-2-carboxamide]	≤6.15 mL/min/kg
CS(=O)(=O)C1(c2ccc(C(=O)NC34CC(c5ncc(Br)s5)(C3)C4)o2)CC1 [Example 24, N-[3-(5-bromothiazol-2-yl)-1-bicyclo[1.1.1]pentanyl]-5-(1-methylsulfonylcyclopropyl)furan-2-carboxamide]	≤6.15 mL/min/kg
